In brackets after ≈: the same amount, converted by molar mass. Values belong to the compound of their own block, whether it stands above or below them. Activity calls are given as the source filed them. The calls are words filed in the database; no cut-off is given here.
Assays:
[1] = test system: MDA-MB-231; assay: Growth inhibition of retinoid-resistant human MDA-MB-231 cells expressing p53 and ERbeta gene at 0.1 to 1 uM by MTT assay; format: functional, cell-based; details: TDE = time-dependent effect
[2] = Induction of apoptosis in mouse MMTV-Wnt-1 cells assessed as cell viability after 72 hrs by DAPI staining based cell counting; format: functional
[3] = test system: KG-1; assay: Induction of apoptosis in human KG1 cells assessed as DNA fragmentation at 5 uM after 48 hrs by acridine orange staining method; format: functional
[4] = test system: HT-29; assay: Induction of apoptosis in human HT-29 cells assessed as decrease in ATP level at 5 uM after 72 hrs by luminescence assay; format: functional; design: scale not given: the % may be the effect or the level left
[5] = test system: PC-3; assay: Induction of apoptosis in human PC3 cells assessed as decrease in ATP level after 72 hrs by luminescence assay; format: functional, cell-based
[6] = test system: SK-BR-3; assay: Induction of apoptosis in human SKBR3 cells assessed as DNA fragmentation at 1 uM after 72 hrs by acridine orange staining; format: functional
[7] = test system: A549; assay: Induction of apoptosis in human A549 cells assessed as decrease in ATP level after 72 hrs by luminescence assay; format: functional, cell-based
[8] = test system: A549; assay: Induction of apoptosis in human A549 cells assessed as decrease in ATP level at 5 uM after 72 hrs by luminescence assay; format: functional; design: scale not given: the % may be the effect or the level left
[9] = test system: SK-BR-3; assay: Induction of apoptosis in estrogen receptor-deficient human SKBR3 cells assessed as DNA fragmentation at 0.5 uM after 48 hrs by acridine orange staining; format: functional
[10] = test system: SK-BR-3; assay: Induction of apoptosis in estrogen receptor-deficient human SKBR3 cells assessed as DNA fragmentation at 0.5 uM by acridine orange staining; format: functional, cell-based; details: TDE = time-dependent effect
[11] = test system: HeLa; assay: Induction of apoptosis in human HeLa cells assessed as ATP level at 0.5 uM after 48 hrs by luminometric analysis; format: functional
[12] = test system: KG-1; assay: Growth inhibition in human KG1 cells expressing p53 gene at 0.1 to 1 uM after 48 hrs by MTT assay; format: functional, cell-based
[13] = test system: PC-3; assay: Induction of apoptosis in human PC3 cells assessed as decrease in ATP level at 5 uM after 72 hrs by luminescence assay; format: functional; design: scale not given: the % may be the effect or the level left
[14] = test system: HT-29; assay: Induction of apoptosis in human HT-29 cells assessed as decrease in ATP level after 72 hrs by luminescence assay; format: functional, cell-based
[15] = test system: KG-1; assay: Induction of apoptosis in human KG1 cells expressing p53 gene assessed as DNA fragmentation at 0.1 to 1 uM after 48 hrs by acridine orange staining method; format: functional, cell-based
[16] = test system: MDA-MB-231; assay: Growth inhibition of retinoid-resistant human MDA-MB-231 cells expressing p53 and ERbeta gene at 1 uM after 24 hrs by MTT assay; format: functional; details: MDA-MB-231, 24 h, read-out: GI
[17] = test system: HT-29; assay: Induction of apoptosis in human HT-29 cells assessed as decrease in ATP level at 10 uM after 72 hrs by luminescence assay relative to control; format: functional; design: scale not given: the % may be the effect or the level left
[18] = test system: MDA-MB-231; assay: Induction of apoptosis in retinoid-resistant human MDA-MB-231 cells expressing p53 and ERbeta gene assessed as DNA fragmentation at 0.1 to 1 uM by acridine orange staining method; format: functional, cell-based; details: TDE = time-dependent effect
[19] = test system: A549; assay: Induction of apoptosis in human A549 cells assessed as decrease in ATP level at 10 uM after 72 hrs by luminescence assay; format: functional, cell-based
[20] = test system: KG-1; assay: Growth inhibition in human KG1 cells expressing p53 gene at 1 uM after 48 hrs by MTT assay; format: functional; details: KG-1, 48 h, read-out: GI
[21] = test system: MDA-MB-231; assay: Induction of apoptosis in retinoid-resistant human MDA-MB-231 cells expressing p53 and ERbeta gene assessed as DNA fragmentation at 1 uM after 24 hrs by acridine orange staining method; format: functional
[22] = test system: HeLa; assay: Induction of apoptosis in human HeLa cells assessed as ATP level at 0.5 uM by luminometric analysis; format: functional, cell-based; details: TDE = time-dependent effect
[23] = Aqueous solubility of the compound in water at pH 5 by UV spectrophotometric analysis; format: physicochemical
[24] = test system: KG-1; assay: Induction of apoptosis in human KG1 cells expressing p53 gene assessed as DNA fragmentation at 1 uM after 48 hrs by acridine orange staining method; format: functional
[25] = Aqueous solubility of the compound in PBS at pH 7.2 by UV spectrophotometric analysis; format: physicochemical; details: PBS, read-out: solubility
[26] = test system: MDA-MB-231; assay: Growth inhibition of retinoid-resistant human MDA-MB-231 cells expressing p53 and ERbeta gene after 48 hrs by MTT assay; format: functional, cell-based
[27] = test system: MDA-MB-231; assay: Induction of apoptosis in retinoid-resistant human MDA-MB-231 cells expressing p53 and ERbeta gene assessed as DNA fragmentation at 1 uM after 48 hrs by acridine orange staining method; format: functional
[28] = test system: KG-1; assay: Growth inhibition in human KG1 cells expressing p53 gene at 5 uM after 48 hrs by MTT assay; format: functional; details: KG-1, 48 h, read-out: GI
[29] = test system: PC-3; assay: Induction of apoptosis in human PC3 cells assessed as decrease in ATP level at 10 uM after 72 hrs by luminescence assay; format: functional, cell-based
[30] = test system: MDA-MB-231; assay: Growth inhibition of retinoid-resistant human MDA-MB-231 cells expressing p53 and ERbeta gene at 1 uM after 48 hrs by MTT assay; format: functional; details: MDA-MB-231, 48 h, read-out: GI
[31] = test system: MDA-MB-231; assay: Induction of apoptosis in retinoid-resistant human MDA-MB-231 cells expressing p53 and ERbeta gene assessed as DNA fragmentation after 48 hrs by acridine orange staining method; format: functional, cell-based
[32] = test system: HT-29; assay: Induction of apoptosis in human HT-29 cells assessed as decrease in ATP level at 10 uM after 72 hrs by luminescence assay; format: functional; design: scale not given: the % may be the effect or the level left
[33] = test system: HeLa; assay: Induction of apoptosis in human HeLa cells assessed as ATP level at 1 uM after 72 hrs by acridine orange staining; format: functional
[34] = test system: HT-29; assay: Growth inhibition of ERalpha-negative and ERbeta-positive human HT-29 cells at 10 uM after 72 hrs in presence of 10% FCS; format: functional; details: HT-29, 72 h, read-out: GI
[35] = test system: HeLa; assay: Induction of apoptosis in human HeLa cells plated on serum free media for 24 hrs assessed as caspase 3 cleavage at 10 uM after 12 hrs; format: functional
[36] = test system: A549; assay: Growth inhibition of ERalpha-negative and ERbeta-positive human A549 cells at 10 uM after 72 hrs; format: functional; details: A549, 72 h, read-out: GI
[37] = test system: SK-BR-3; assay: Growth inhibition of estrogen receptor-deficient human SKBR3 cells at 1 uM after 144 hrs by MTT assay relative to control in presence of 5% serum; format: functional; details: SK-BR-3, 144 h, read-out: GI
[38] = test system: SK-BR-3; assay: Growth inhibition of estrogen receptor-deficient human SKBR3 cells at 1 uM after 216 hrs by MTT assay relative to control in presence of 5% serum; format: functional; details: SK-BR-3, 216 h, read-out: GI
[39] = test system: HeLa; assay: Growth inhibition of human HeLa cells at 1 uM after 96 hrs by MTT assay in presence of 5% serum; format: functional; details: read-out: GI

solubility [23]: 7 µM (≈ 2.63 µg/mL)
solubility [25]: 14 µM (≈ 5.26 µg/mL)
SMILES: O=C(O)/C=C/c1ccc(-c2ccc(O)c(C34CC5CC(CC(C5)C3)C4)c2)nc1
growth inhibition (GI) [1]: tde
IC50 [2]: 19 nM
Activity [3]: 84%
Activity [4]: 30%
Activity [5]: Dose-dependent effect
Activity [6]: 15%
Activity [7]: Dose-dependent effect
Activity [8]: 30%
Activity [9]: 1.9%
Activity [10]: tde
Activity [11]: >60%
growth inhibition (GI) [12]: Active
Activity [13]: 30%
Activity [14]: Dose-dependent effect
Activity [15]: Active
inhibition of growth at 1 µM [16]: 86%
Activity [17]: <60%
Activity [18]: tde
Activity [19]: Active
inhibition of growth at 1 µM [20]: 85%
Activity [21]: 38%
Activity [22]: tde
Activity [24]: 68%
growth inhibition (GI) [26]: Dose-dependent effect
Activity [27]: 82%
inhibition of growth at 5 µM [28]: 90%
Activity [29]: Active
inhibition of growth at 1 µM [30]: 85%
Activity [31]: Dose-dependent effect
Activity [32]: >=40%
Activity [33]: 2.6%

SMILES: CC1=C(/C=C/C(C)=C/C=C/C(C)=C/C(=O)O)C(C)(C)CCC1 [TRETINOIN]
inhibition of growth at 10 µM [34]: 8%
Activity [35]: 87%
inhibition of growth at 10 µM [36]: 5%
inhibition of growth at 1 µM [37]: 36%
inhibition of growth at 1 µM [38]: 24%
inhibition of growth at 1 µM [39]: 71%
